Several values for one entry are separate records, joined by “and”; a condition that tells them apart may be missing. Equal values may be shown once. Read-outs that look alike come from different tables or passages of the source.
Columns and labels:
[1] = tested on: HIV-1; assay: NCI in vitro anti-HIV screen: reduction of HIV-1 cytopathic effect in T4 lymphocytes (CEM cell line), XTT/formazan readout; format: cell-based, HIV-1 (in human cell line CEM); conditions: replicate tests; for TI50 (therapeutic index, IC50/EC50): calculated as IC50/EC50, CEM cells
Description: Representative compounds of this invention were tested for anti-viral activity by subjecting them to standard National Cancer Institute ("NCI") in vitro screening procedures. Two blanks were run with each test. The NCI test for agents active against HIV is designed to detect agents acting at any stage of the virus reproduction cycle.
In the test assay, small amounts of HIV are added to T4 lymphocyte cells. The assay measures the amount of T4 lymphocytes "killed" by HIV cytolysis. Since a complete cycle of viral reproduction is necessary to "kill" the T4 lymphocyte cells, agents that interfere with viral reproduction will protect the cells from cytolysis.
The NCI system is automated in several features to accomodate large numbers of candidate agents and is generally designed to detect anti-HIV activity. […] All tests are compared with at least one positive (AZT-treated) control done at the same time under identical conditions.
(§1) 1) The test compound was dissolved in dimethyl sulfoxide and diluted 1:100 in cell culture medium before serial half-log10 dilutions were prepared. T4 lymphocytes (CEM cell line) were then added to the cell culture medium, and, finally, after a brief interval, HIV-1 was added, resulting in a 1:200 final dilution of the test compound. Uninfected cells in the cell culture medium containing the test compound (i.e., minus HIV-1) were used as a toxicity control, and infected cells in the cell culture medium without the test compound and uninfected cells in the cell culture medium without the test compound, were used as basic controls.
(§2) 2) The cultures were incubated at 37° C. in a 5% carbon dioxide atmosphere for 6 days.
(§3) 3) The tetrazolium salt, XTT, was added to all wells, and the cultures were then incubated to allow formazan color development by viable cells.
(§4) 4) Individual wells were analyzed spectrophotometrically to quantitate formazan production, and were also viewed microscopically for detection of viable cells and confirmation of protective activity.
(§5) 5) Virus-infected cells exposed to the test compound were compared with noninfected cells exposed to the test compound, and with other appropriate controls (infected cells not exposed to the test compound and noninfected cells not exposed to the test compound, wells containing only the test compound in the cell culture medium, and so on) on the same plate. These are the first and second blanks described below.
6) Data were reviewed in comparison with other tests done at the same time and a determination concerning activity was made. In the first blank, HIV and T4 lymphocytes in cell culture medium, were incubated together to measure the infectivity of the virus. The viability of the cells was measured after holding for six or seven days. In an "effective" test, most cells were infected before the holding period was complete.
Finally, the protective effects of the test compounds were measured. Each cell culture and test compound were incubated with the virus and the viability of the cells was measured as a function of compound concentration after incubation for six or seven days. The concentration of the test compound that results in 50% "control," i.e., a 50% reduction of the viral cytopathic effect, is defined as its EC50. The therapeutic index TI50 was calculated as IC50 /EC50.
Concentrations of test compounds required for between 20 and 50% reduction of the viral cytopathic effect can also be determined. Such compounds are classified as moderately active.
(§6) The compounds were tested to determine their reduction of HIV cytopathic effect on the human cell line CEM. Tests were done by innoculating these cell lines in-well (IW), i.e., the test compound and CEM cells were mixed on a test plate and the virus was added a short time later.

[2] = tested on: T4 lymphocytes (CEM cell line); assay: Toxicity to uninfected T4 lymphocytes (CEM cell line): 50% inhibition of cell growth (second blank); format: cell-based, human; conditions: uninfected CEM cells, no HIV-1, cytotoxicity, replicate tests, read-out: IC50 (concentration that results in 50% inhibition of cell growth)
Description: as §1, §2, §3, §4, §5
In the second blank, the T4 lymphocytes in cell culture medium and the test compound (with no HIV-1) were incubated together to measure the toxicity of the drug to the cellline. The viability of the cells was measured as a function of concentration of the compound, after incubation for seven days. The concentration of the test compound that results in 50% inhibition of cell growth is defined as its IC50.
as §6

[3] = HIV-1 infected CEM cells, in-well (IW) inoculation, six or seven days, read-out: EC50 (concentration that results in 50% reduction of the viral cytopathic effect)
[4] = Human immunodeficiency virus 1, CCRF-CEM, 168 h, HIV-1 infected CEM cells, in-well (IW) inoculation, six or seven days, read-out: EC50 (concentration that results in 50% reduction of the viral cytopathic effect)

Structure (SMILES)	EC50 [1, 3]	EC50 [1, 4]	TI50 (therapeutic index, IC50/EC50) [1]	IC50 ([2]; Homo sapiens, CCRF-CEM)	IC50 [2]	EC50 ([1]; Human immunodeficiency virus 1, CCRF-CEM, 168 h, read-out: EC50 (concentration that results in 50% reduction of the viral cytopathic effect), HIV-1 infected CEM cells, in-well (IW) inoculation, six or seven days)	EC50 ([1]; read-out: EC50 (concentration that results in 50% reduction of the viral cytopathic effect), HIV-1 infected CEM cells, in-well (IW) inoculation, six or seven days)
CC1(OC(=O)c2cc(NC(=O)c3ccccc3)ccc2Cl)CCCC1 [Compound 1]	11.5 µM and 15.2 µM and 17.6 µM	17.3 µM	2 and 4	41.8 µM	49.5 µM and 32.7 µM and 32 µM	–	–
CC1(OC(=O)c2cc(NC(=S)c3ccccc3)ccc2Cl)CCCC1 [Compound 2]	0.216 µM and 0.232 µM and 0.398 µM and 0.598 µM	–	137 and 124 and 78 and 54	29.4 µM	28.8 µM and 31 µM and 32 µM	–	–
CC1CCCC1OC(=O)c1cc(NC(=S)c2ccccc2)ccc1Cl (stereo not drawn) [Compound 3]	0.0867 µM and 0.0783 µM and 0.101 µM	0.0967 µM	146 and 141 and 180 and 136	14.1 µM	12.2 µM and 13.8 µM	–	–
CC1CCCC(C)C1OC(=O)c1cc(NC(=S)c2ccccc2)ccc1Cl (stereo not drawn) [Compound 4]	0.94 µM and 2.1 µM and 0.95 µM and 0.37 µM	–	> 14 and > 6 and > 35	> 13 µM	–	–	–
CC1CCCCC1OC(=O)c1cc(NC(=S)c2ccccc2)ccc1Cl (stereo not drawn) [Compound 5]	0.175 µM and 0.199 µM and 0.0791 µM and 0.126 µM	–	92 and 71 and 172 and 107	16 µM	14.1 µM and 13.6 µM and 13.4 µM	–	–
CC1=C(C(=O)Nc2ccc(Cl)c(C(=O)OC3CCCCC3C)c2)SCCO1 (stereo not drawn) [Compound 6]	–	–	> 1 and > 18 and 19 and 18	> 24 µM	14 µM and 20 µM	–	–
CC1CCC(OC(=O)c2cc(NC(=O)c3ccccc3)ccc2Cl)C1 (stereo not drawn) [Compound 7]	5.8 µM and 3.6 µM and 6.1 µM	5.7 µM	3 and 2 and 5	19 µM	11 µM and 17 µM and 14 µM	–	–
CC1CCC(OC(=O)c2cc(NC(=S)c3ccccc3)ccc2Cl)C1 (stereo not drawn) [Compound 8]	0.195 µM and 0.184 µM and 0.181 µM	0.213 µM	68 and 69 and 80 and 72	14.6 µM	13.5 µM and 14.8 µM and 13.1 µM	–	–
CC1CCCCC1OC(=O)c1cc(NC(=O)c2ccccc2)ccc1Cl (stereo not drawn) [Compound 9, 2-methylcyclohexyl 2-chloro-5-(benzoylamino)benzoate]	–	–	31 and 28 and 65	14.2 µM	12.6 µM and 15.3 µM and 14.5 µM	4.65 µM	4.47 µM and 2.37 µM
Cc1ccccc1C(=O)Nc1ccc(Cl)c(C(=O)OC2CCCCC2C)c1 (stereo not drawn) [Compound 10]	2.39 µM and 1.75 µM and 1.3 µM and 1.13 µM	–	8 and 10 and 13 and 15	19.7 µM	16.9 µM and 17.1 µM and 16.6 µM	–	–
Cc1ccccc1C(=S)Nc1ccc(Cl)c(C(=O)OC2CCCCC2C)c1 (stereo not drawn) [Compound 11]	5.4 µM and 4.4 µM	5 µM	> 2	> 9.4 µM	–	–	–
CC(OC(=O)c1cc(NC(=S)c2ccccc2)ccc1Cl)C1CCCC1 (stereo not drawn) [Compound 12]	0.23 µM and 0.27 µM	0.28 µM	> 48 and > 60 and > 50	> 14 µM	–	–	–
CC(OC(=O)c1cc(NC(=S)c2ccccc2)ccc1Cl)C1CC1 (stereo not drawn) [Compound 13]	2.1 µM and 2.2 µM and 0.79 µM and 0.72 µM	–	> 18 and > 17 and > 48 and > 52	> 38 µM	–	–	–
Cc1occc1C(=O)Nc1ccc(Cl)c(C(=O)OC(C)C2CCCC2)c1 (stereo not drawn) [Compound 14]	0.84 µM and 1.1 µM and 0.77 µM and 2.3 µM and 1.7 µM	–	9 and > 13 and > 18 and > 6 and > 8	7.7 µM	> 14 µM	–	–
Cc1occc1C(=O)Nc1ccc(Cl)c(C(=O)OC(C)C2CC2)c1 (stereo not drawn) [Compound 15]	1.4 µM and 2.5 µM and 1.1 µM	–	> 14 and > 8 and > 19	> 21 µM	–	–	–
Cc1occc1C(=S)Nc1ccc(Cl)c(C(=O)OC(C)C2CC2)c1 (stereo not drawn) [Compound 16]	–	–	> 440 and > 240 and > 1600	> 20 µM	–	–	–
CC(OC(=O)c1cc(NC(=O)c2cccn2C)ccc1Cl)C1CC1 (stereo not drawn) [Compound 17]	5.3 µM and 9.7 µM and 5 µM and 4.1 µM	–	> 10 and > 6 and > 11 and > 13	> 54 µM	–	–	–

— US5756813A, “Hindered aromatic ester compounds useful as anti-viral agents” (Uniroyal Chemical Ltd/Uniroyal Chemical Ltee, priority 1996, dated 1998)
